Results: patent US11957669B2, “Pharmaceutical composition containing (R)-N-[1-(3,5-difluoro-4-methansulfonylamino-phenyl)-ethyl]-3-(2-propyl-6-trifluoromethyl-pyridin-3-yl)-acrylamide” (AMOREPACIFIC CORPORATION, priority 2017, dated 2024)

Experiments:
[1] = Solubility of the compound of Formula (1) in various solvents (excess compound, shaking, HPLC); assay type: physicochemical; details: for solubility at 24 h: thermodynamic from solid
Method: An excess amount of the compound of Formula (1) was added to 1 mL of each solvent described in Table 1 below and stirred for 24 hours at 25° C. while shaking at 200 rpm (Shaking incubator, SI 600R, JEIO TECH, Korea). Thereafter, a centrifugation was performed at 10,000 rpm for 10 minutes, and the supernatant was filtered using a membrane filter (0.2 μm), then diluted moderately with methanol and analyzed by HPLC.

[2] = as above; assay type: physicochemical

solubility at 24 h ([1]; 25 °C, organic solvent or mixture, in dimethyl sulfoxide, diethylene glycol monoethyl ether, 2-pyrrolidone and polyethylene glycol (summary of Table 1)): ≥ 100 mg/mL
solubility at 24 h ([1]; oil or lipid, in Cocoyl caprylocaprate, 25° C., 24 hours): 0.46 mg/mL
solubility at 24 h ([1]; oil or lipid, in Corn oil, 25° C., 24 hours): 1.8 mg/mL
solubility at 24 h ([1]; oil or lipid, in Ethyl oleate, 25° C., 24 hours): 1 mg/mL
solubility at 24 h ([1]; oil or lipid, in Isopropyl myristate, 25° C., 24 hours): 1.18 mg/mL
solubility at 24 h ([1]; oil or lipid, in Miglyol, 25° C., 24 hours): 1.4 mg/mL
solubility at 24 h ([1]; oil or lipid, in Octyldodecanol, 25° C., 24 hours): 1.77 mg/mL
solubility at 24 h ([1]; oil or lipid, in Oleic acid, 25° C., 24 hours): 0.43 mg/mL
solubility at 24 h ([1]; oil or lipid, in Oleyl Alcohol, 25° C., 24 hours): 6.32 mg/mL
solubility at 24 h ([1]; oil or lipid, in Propylene glycol monocaprylate, 25° C., 24 hours): 75 mg/mL
solubility at 24 h ([1]; oil or lipid, in Propylene glycol monolaurate, 25° C., 24 hours): 7.75 mg/mL
solubility at 24 h ([1]; oil or lipid, in Triglycerides, Medium chain, 25° C., 24 hours): 1.9 mg/mL
solubility at 24 h ([1]; organic solvent or mixture, in 2-Pyrrolidinone, 25° C., 24 hours): 212 mg/mL
solubility at 24 h ([1]; organic solvent or mixture, in Acetonitrile, 25° C., 24 hours): 108 mg/mL
solubility at 24 h ([1]; organic solvent or mixture, in Caprylocaproyl polyoxyl-8 glycerides, 25° C., 24 hours): 46.7 mg/mL
solubility at 24 h ([1]; organic solvent or mixture, in Diethylene glycol monoethyl ether, 25° C., 24 hours): 289 mg/mL
solubility at 24 h ([1]; organic solvent or mixture, in Dimethyl sulfoxide, 25° C., 24 hours): 632 mg/mL
solubility at 24 h ([1]; organic solvent or mixture, in Dimethylacetamide, 25° C., 24 hours): 80 mg/mL
solubility at 24 h ([1]; organic solvent or mixture, in Ethanol, 25° C., 24 hours): 75.3 mg/mL
solubility at 24 h ([1]; organic solvent or mixture, in Glycerol, 25° C., 24 hours): 0.84 mg/mL
solubility at 24 h ([1]; organic solvent or mixture, in Lauroyl macrogol-32 glycerides, 25° C., 24 hours): 24.1 mg/mL
solubility at 24 h ([1]; organic solvent or mixture, in Methanol, 25° C., 24 hours): 178 mg/mL
solubility at 24 h ([1]; organic solvent or mixture, in Oleoyl polyoxyl-6 glycerides, 25° C., 24 hours): 4.36 mg/mL
solubility at 24 h ([1]; organic solvent or mixture, in Poloxamer 124, 25° C., 24 hours): 66.7 mg/mL
solubility at 24 h ([1]; organic solvent or mixture, in Polyethylene glycol(PEG) 300, 25° C., 24 hours): 146 mg/mL
solubility at 24 h ([1]; organic solvent or mixture, in Polyethylene glycol(PEG) 400, 25° C., 24 hours): 168 mg/mL
solubility at 24 h ([1]; organic solvent or mixture, in Polyethylene glycol-35 castor oil, 25° C., 24 hours): 2.7 mg/mL
solubility at 24 h ([1]; organic solvent or mixture, in Polyoxyl 40 hydrogenated castor oil, 25° C., 24 hours): 36 mg/mL
solubility at 24 h ([1]; organic solvent or mixture, in Polysorbate 20, 25° C., 24 hours): 48 mg/mL
solubility at 24 h ([1]; organic solvent or mixture, in Polysorbate 40, 25° C., 24 hours): 37 mg/mL
solubility at 24 h ([1]; organic solvent or mixture, in Polysorbate 60, 25° C., 24 hours): 35 mg/mL
solubility at 24 h ([1]; organic solvent or mixture, in Polysorbate 80, 25° C., 24 hours): 11.8 mg/mL
solubility at 24 h ([1]; organic solvent or mixture, in Propylene glycol, 25° C., 24 hours): 25 mg/mL
solubility at 24 h ([1]; organic solvent or mixture, in Triacetin, 25° C., 24 hours): 56.5 mg/mL
solubility at 24 h ([1]; in Purified water, 25° C., 24 hours): 0.05 mg/mL
solubility ([1]; water, background statement): < 0.1 mg/mL
solubility ([2]; aqueous with cosolvent or surfactant or cyclodextrin, in a 10% (w/w) aqueous solution of PEG 400): ~0.08 mg/mL
solubility in oil ([2]; oil, background statement): significantly low solubility in oil
SMILES: CCCc1nc(C(F)(F)F)ccc1/C=C/C(=O)N[C@H](C)c1cc(F)c(NS(C)(=O)=O)c(F)c1 [compound of Formula (1), (R)—N-[1-(3,5-difluoro-4-methanesulfonylamino-phenyl)-ethyl]-3-(2-propyl-6-trifluoromethyl-pyridin-3-yl)-acrylamide]
